Measured values taken from ChEMBL document CHEMBL1139533, “Structure-activity relationship studies of a series of antiviral and antibacterial aglycon derivatives of the glycopeptide antibiotics vancomycin, eremomycin, and dechloroeremomycin” (J Med Chem, 2005).
In brackets after ≈: the same amount, converted by molar mass.

Columns and labels:
[1] = system: Human immunodeficiency virus 2; experiment: Effective concentration against human immunodeficiency virus type 2; assay type: functional, organism-based
C3H/3T3 = experiment: Minimal cytotoxic concentration to cause an alteration in C3H/3T3 cell line morphology; assay type: functional; details: Mus musculus
Enterococcus faecium [2] = experiment: Minimum inhibitory concentration against glycopeptide resistant enterococci 569 Enterococcus faecium; assay type: functional
[3] = system: Moloney murine sarcoma virus; experiment: Effective concentration against Moloney sarcoma virus; assay type: functional, organism-based, Viruses
Enterococcus faecium [4] = experiment: Minimum inhibitory concentration against glycopeptide susceptible enterococci 568 Enterococcus faecium; assay type: functional
MOLT-4 = experiment: Cytostatic activity to the compound against Molt4/C8 cell line; assay type: functional, cell-based; details: Homo sapiens
Staphylococcus aureus [5] = experiment: Minimum inhibitory concentration against glycopeptide intermediate-resistant 3797 Staphylococcus aureus; assay type: functional
Enterococcus faecalis [6] = experiment: Minimum inhibitory concentration against 559 glycopeptide susceptible enterococci Enterococcus faecalis; assay type: functional
Staphylococcus aureus [7] = experiment: Minimum inhibitory concentration against glycopeptide intermediate-resistant 3798 Staphylococcus aureus; assay type: functional
CCRF-CEM = experiment: Cytostatic activity to the compound against CEM cell line; assay type: functional, cell-based; details: Homo sapiens
[8] = system: Human immunodeficiency virus 1; experiment: Effective concentration against human immunodeficiency virus type 1; assay type: functional, organism-based
[9] = system: Staphylococcus epidermidis; experiment: Minimum inhibitory concentration against 533 Staphylococcus epidermidis; assay type: functional
Enterococcus faecalis [10] = experiment: Minimum inhibitory concentration against glycopeptide resistant enterococci 560 Enterococcus faecalis; assay type: functional
L1210 = experiment: Cytostatic activity against L1210 cell line; assay type: functional, cell-based; details: Mus musculus
[11] = system: Staphylococcus haemolyticus; experiment: Minimum inhibitory concentration against 602 Staphylococcus haemolyticus; assay type: functional

For `NC(=O)C[C@@H]1NC(=O)[C@H](N)[C@H](O)c2ccc(c(Cl)c2)Oc2cc3cc(c2O)Oc2ccc(cc2)[C@@H](O)[C@@H]2NC(=O)[C@H](NC(=O)[C@@H]3NC1=O)c1ccc(O)c(c1)-c1c(O)cc(O)cc1[C@@H](C(=O)O)NC2=O`, the EC50 [1] was greater than 250 µM, the MCC (C3H/3T3) was no less than 100 µg/mL and the MIC (Enterococcus faecium [2]) was greater than 128 µg/mL. The EC50 [3] was greater than 100 µM, the MIC (Enterococcus faecium [4]) was greater than 128 µg/mL and the IC50 (MOLT-4) was greater than 250 µM. The MIC (Staphylococcus aureus [5]) was greater than 128 µg/mL, the MIC (Enterococcus faecalis [6]) was greater than 128 µg/mL and the MIC (Staphylococcus aureus [7]) was greater than 128 µg/mL. For the same molecule, the IC50 (CCRF-CEM) was greater than 250 µM, the EC50 [8] was 115 µM and the MIC [9] was greater than 128 µg/mL. For the same molecule, the MIC (Enterococcus faecalis [10]) was greater than 128 µg/mL, the IC50 (L1210) was greater than 250 µM and the MIC [11] was greater than 128 µg/mL.
Work on `NCCCCCCCCCCNC(=O)[C@H]1NC(=O)[C@H]2NC(=O)[C@H](NC(=O)[C@@H]3NC(=O)[C@H](CC(N)=O)NC(=O)[C@H](N)[C@H](O)c4ccc(c(Cl)c4)Oc4cc3cc(c4O)Oc3ccc(cc3Cl)[C@H]2O)c2ccc(O)c(c2)-c2c(O)cc(O)cc21` yielded an EC50 [1] of no less than 25 µM, an MCC (C3H/3T3) of 100 µg/mL and an MIC (Enterococcus faecium [2]) greater than 64 µg/mL. It also gave an EC50 [3] of 9.3 µM, an MIC (Enterococcus faecium [4]) greater than 64 µg/mL and an IC50 (MOLT-4) of no less than 250 µM. For the same molecule, the MIC (Staphylococcus aureus [5]) was greater than 32 µg/mL, the MIC (Enterococcus faecalis [6]) was greater than 64 µg/mL and the MIC (Staphylococcus aureus [7]) was greater than 32 µg/mL. For the same molecule, the IC50 (CCRF-CEM) was 139 µM, the EC50 [8] was no less than 25 µM and the MIC [9] was greater than 32 µg/mL. It also gave an MIC (Enterococcus faecalis [10]) greater than 64 µg/mL, an IC50 (L1210) greater than 250 µM and an MIC [11] greater than 32 µg/mL.
For `CN[C@H](CC(C)C)C(=O)N[C@H]1C(=O)N[C@@H](CC(N)=O)C(=O)N[C@H]2C(=O)N[C@H]3C(=O)N[C@H](C(=O)N[C@H](C(=O)O)c4cc(O)cc(O)c4-c4cc3ccc4O)[C@H](O)c3ccc(cc3)Oc3cc2cc(c3O)Oc2ccc(cc2)[C@H]1O`, the EC50 [1] was greater than 125 µM, the MCC (C3H/3T3) was no less than 100 µg/mL and the MIC (Enterococcus faecium [2]) was greater than 64 µg/mL. It also gave an EC50 [3] of no less than 100 µM, an MIC (Enterococcus faecium [4]) of 32 µg/mL (≈ 29.8 µM) and an IC50 (MOLT-4) greater than 250 µM. The MIC (Staphylococcus aureus [5]) was greater than 32 µg/mL, the MIC (Enterococcus faecalis [6]) was 32 µg/mL (≈ 29.8 µM) and the MIC (Staphylococcus aureus [7]) was greater than 32 µg/mL. For the same molecule, the IC50 (CCRF-CEM) was greater than 250 µM, the EC50 [8] was greater than 125 µM and the MIC [9] was 32 µg/mL (≈ 29.8 µM). The MIC (Enterococcus faecalis [10]) was greater than 64 µg/mL, the IC50 (L1210) was greater than 250 µM and the MIC [11] was greater than 32 µg/mL.
Molecule `NC(=O)C[C@@H]1NC(=O)[C@H](N)[C@H](O)c2ccc(c(Cl)c2)Oc2cc3cc(c2O)Oc2ccc(cc2Cl)[C@@H](O)[C@@H]2NC(=O)[C@H](NC(=O)[C@@H]3NC1=O)c1ccc(O)c(c1)-c1c(O)cc(O)cc1[C@@H](C(=O)O)NC2=O` has an EC50 [1] of no less than 125 µM, an MCC (C3H/3T3) greater than 100 µg/mL and an MIC (Enterococcus faecium [2]) greater than 128 µg/mL. It also gave an EC50 [3] of 88 µM, an MIC (Enterococcus faecium [4]) greater than 128 µg/mL and an IC50 (MOLT-4) greater than 250 µM. The MIC (Staphylococcus aureus [5]) was greater than 128 µg/mL, the MIC (Enterococcus faecalis [6]) was greater than 128 µg/mL and the MIC (Staphylococcus aureus [7]) was greater than 128 µg/mL. It also gave an IC50 (CCRF-CEM) of no less than 250 µM, an EC50 [8] of no less than 125 µM and an MIC [9] greater than 128 µg/mL. The MIC (Enterococcus faecalis [10]) was greater than 128 µg/mL, the IC50 (L1210) was greater than 250 µM and the MIC [11] was greater than 128 µg/mL.
`NC(=O)C[C@@H]1NC(=O)[C@H](N)[C@H](O)c2ccc(c(Cl)c2)Oc2cc3cc(c2O)Oc2ccc(cc2Cl)[C@@H](O)[C@@H]2NC(=O)[C@H](NC(=O)[C@@H]3NC1=O)c1ccc(O)c(c1)-c1c(O)cc(O)cc1[C@@H](C(=O)NCC13CC4CC(CC(C4)C1)C3)NC2=O` showed an EC50 [1] of 30 µM, an MCC (C3H/3T3) of no less than 100 µg/mL and an MIC (Enterococcus faecium [2]) greater than 64 µg/mL. For the same molecule, the EC50 [3] was 27 µM, the MIC (Enterococcus faecium [4]) was greater than 64 µg/mL and the IC50 (MOLT-4) was 178 µM. For the same molecule, the MIC (Staphylococcus aureus [5]) was greater than 32 µg/mL, the MIC (Enterococcus faecalis [6]) was greater than 64 µg/mL and the MIC (Staphylococcus aureus [7]) was greater than 32 µg/mL. For the same molecule, the IC50 (CCRF-CEM) was no less than 250 µM, the EC50 [8] was 20 µM and the MIC [9] was greater than 32 µg/mL. It also gave an MIC (Enterococcus faecalis [10]) greater than 64 µg/mL, an IC50 (L1210) of no less than 250 µM and an MIC [11] greater than 32 µg/mL.
`CN[C@H](CC(C)C)C(=O)N[C@H]1C(=O)N[C@@H](CC(N)=O)C(=O)N[C@H]2C(=O)N[C@H]3C(=O)N[C@H](C(=O)N[C@H](C(=O)NCC45CC6CC(CC(C6)C4)C5)c4cc(O)cc(O)c4-c4cc3ccc4O)[C@H](O)c3ccc(cc3)Oc3cc2cc(c3O)Oc2ccc(cc2)[C@H]1O` gave an EC50 [1] of 12 µM, an MCC (C3H/3T3) of 100 µg/mL and an MIC (Enterococcus faecium [2]) of 16 µg/mL (≈ 13.1 µM). The EC50 [3] was 11 µM, the MIC (Enterococcus faecium [4]) was 4 µg/mL (≈ 3.27 µM) and the IC50 (MOLT-4) was 44 µM. The MIC (Staphylococcus aureus [5]) was 8 µg/mL (≈ 6.54 µM), the MIC (Enterococcus faecalis [6]) was 8 µg/mL (≈ 6.54 µM) and the MIC (Staphylococcus aureus [7]) was 16 µg/mL (≈ 13.1 µM). The IC50 (CCRF-CEM) was 165 µM, the EC50 [8] was 8.5 µM and the MIC [9] was 8 µg/mL (≈ 6.54 µM). It also gave an MIC (Enterococcus faecalis [10]) of 16 µg/mL (≈ 13.1 µM), an IC50 (L1210) of 58 µM and an MIC [11] of 16 µg/mL (≈ 13.1 µM).
`NC(=O)C[C@@H]1NC(=O)[C@H](N)[C@H](O)c2ccc(c(Cl)c2)Oc2cc3cc(c2O)Oc2ccc(cc2)[C@@H](O)[C@@H]2NC(=O)[C@H](NC(=O)[C@@H]3NC1=O)c1ccc(O)c(c1)-c1c(O)cc(O)cc1[C@@H](C(=O)NC1C3CC4CC(C3)CC1C4)NC2=O` (stereo not given in full) was tested, and the EC50 [1] was 50 µM, the MCC (C3H/3T3) was no less than 100 µg/mL and the MIC (Enterococcus faecium [2]) was greater than 64 µg/mL. The EC50 [3] was 22 µM, the MIC (Enterococcus faecium [4]) was greater than 64 µg/mL and the IC50 (MOLT-4) was greater than 250 µM. The MIC (Staphylococcus aureus [5]) was greater than 32 µg/mL, the MIC (Enterococcus faecalis [6]) was greater than 64 µg/mL and the MIC (Staphylococcus aureus [7]) was greater than 32 µg/mL. The IC50 (CCRF-CEM) was greater than 250 µM, the EC50 [8] was 50 µM and the MIC [9] was greater than 32 µg/mL. The MIC (Enterococcus faecalis [10]) was greater than 64 µg/mL, the IC50 (L1210) was greater than 250 µM and the MIC [11] was greater than 32 µg/mL.
`CN[C@H](CC(C)C)C(=O)N[C@H]1C(=O)N[C@@H](CC(N)=O)C(=O)N[C@H]2C(=O)N[C@H]3C(=O)N[C@H](C(=O)N[C@H](C(=O)NC4C5CC6CC(C5)CC4C6)c4cc(O)cc(O)c4-c4cc3ccc4O)[C@H](O)c3ccc(cc3)Oc3cc2cc(c3O)Oc2ccc(cc2)[C@H]1O` (stereo not given in full) gave an EC50 [1] of 21.7 µM, an MCC (C3H/3T3) of 100 µg/mL and an MIC (Enterococcus faecium [2]) of 32 µg/mL (≈ 26.5 µM). For the same molecule, the EC50 [3] was 14 µM, the MIC (Enterococcus faecium [4]) was 8 µg/mL (≈ 6.62 µM) and the IC50 (MOLT-4) was 185 µM. For the same molecule, the MIC (Staphylococcus aureus [5]) was 16 µg/mL (≈ 13.2 µM), the MIC (Enterococcus faecalis [6]) was 16 µg/mL (≈ 13.2 µM) and the MIC (Staphylococcus aureus [7]) was 16 µg/mL (≈ 13.2 µM). It also gave an IC50 (CCRF-CEM) of 185 µM, an EC50 [8] of 8.5 µM and an MIC [9] of 16 µg/mL (≈ 13.2 µM). It also gave an MIC (Enterococcus faecalis [10]) of 32 µg/mL (≈ 26.5 µM), an IC50 (L1210) of 129 µM and an MIC [11] of 16 µg/mL (≈ 13.2 µM).
With `CN[C@H](CC(C)C)C(=O)N[C@H]1C(=O)N[C@@H](CC(N)=O)C(=O)N[C@H]2C(=O)N[C@H]3C(=O)N[C@H](C(=O)N[C@H](C(=O)NCCCCCCCCCCN)c4cc(O)cc(O)c4-c4cc3ccc4O)[C@H](O)c3ccc(cc3)Oc3cc2cc(c3O)Oc2ccc(cc2)[C@H]1O` the EC50 [1] was greater than 25 µM, the MCC (C3H/3T3) was 100 µg/mL and the MIC (Enterococcus faecium [2]) was 64 µg/mL (≈ 52.1 µM). The EC50 [3] was 14 µM, the MIC (Enterococcus faecium [4]) was 8 µg/mL (≈ 6.51 µM) and the IC50 (MOLT-4) was 106 µM. For the same molecule, the MIC (Staphylococcus aureus [5]) was 16 µg/mL (≈ 13 µM), the MIC (Enterococcus faecalis [6]) was 16 µg/mL (≈ 13 µM) and the MIC (Staphylococcus aureus [7]) was 16 µg/mL (≈ 13 µM). The IC50 (CCRF-CEM) was 109 µM, the EC50 [8] was 15 µM and the MIC [9] was 16 µg/mL (≈ 13 µM). For the same molecule, the MIC (Enterococcus faecalis [10]) was 32 µg/mL (≈ 26 µM), the IC50 (L1210) was 146 µM and the MIC [11] was 16 µg/mL (≈ 13 µM).
